Test results from patent publication US8906911B2, “Chemokine receptor antagonists” (AbbVie Inc., priority 2012, dated 2014).
Read-outs that look alike come from different tables or passages of the source.

Legend:
rat CCR2 = rat CCR2 (Rattus norvegicus (Rat), UniProt O55193); assay: Inhibition of native agonist (rat MCP-1)-induced intracellular calcium release, calcium flux assay in CHO cells expressing rat CCR2 and Gα16; type: cell-based; settings: read-out: rCCR2 Kb
Description: (§1) CHO cells expressing human CCR2B were generated as follows. cDNA for human CCR2B (cloned from human blood) was cloned into plasmid pcDNA3.1 (from Invitrogen). The resulting plasmids were separately transfected into CHO cells expressing human Gα16 (from Molecular Devices). […] CHO cells expressing rat CCR2 were generated as follows. cDNA for rat CCR2 (cloned from rat macrophage) was cloned into plasmid pEF-flag (from Chinese Academy of Science). The resulting plasmids were transfected into CHO cells expressing human Gα16 (from […]).
(§2) Inhibition of Native Agonist-Induced Intracellular Calcium Release in Cells Expressing hCCR2B or rCCR2
(§3) Calcium flux assays were performed in CHO cells expressing human CCR2B and Gα16 coupling protein, or rat CCR2 and Gα16 coupling protein. All compounds were dissolved in DMSO and assays run at a final DMSO concentration of 0.25% (v/v). Human MCP-1 was purchased from PeproTech and used at a final assay concentration of 2 nM, while rat MCP-1 was purchased from R&D and used at a final assay concentration of 4 nM. Assays with cells expressing human CCR2B were performed with human MCP-1, while assays with cells expressing rat CCR2 were performed with rat MCP-1.
(§4) Briefly, cells were cultured overnight in a microtiter plate at 8000 per well. The next day, the resultant adherent cells were incubated in assay buffer (20 mM HEPES, pH 7.4, 0.1% bovine serum albumin, and 2.5 mM probenocid in Hank's Buffered Saline Solution) containing Calcium 4 dye (Molecular Probes) at 37° C. for 60 minutes. Calcium flux assays were performed on a FLIPR^Tetra instrument (Molecular Devices) by adding compound to the cells followed by addition of native agonist and measuring the change in fluorescence as a function of time. Maximal and minimal values for fluorescence were determined using native agonist (2 nM MCP-1) for human or rat CCR2, or buffer addition, respectively. Fluorescence values were used to calculate the percent inhibition at a given compound concentration and the data fit to a sigmoidal curve in a semi-log plot to determine IC50 values. The Kb value is calculated as Kb=IC50/(1+[agonist]/EC50), where [agonist] is the concentration of agonist used and EC50 is the agonist potency determined in the previous experiments. Mean Kb values and IC50 of the compounds assayed are reported in Table 2 and Table 3 respectively.

human CCR2B = human CCR2B (Homo sapiens (Human), UniProt P41597); assay: Inhibition of native agonist (human MCP-1)-induced intracellular calcium release, calcium flux assay in CHO cells expressing human CCR2B and Gα16; type: cell-based; settings: for IC50: read-out: hCCR2B IC50
Sequence of human CCR2B (P41597 other isoform, or with tags, fused parts or gaps): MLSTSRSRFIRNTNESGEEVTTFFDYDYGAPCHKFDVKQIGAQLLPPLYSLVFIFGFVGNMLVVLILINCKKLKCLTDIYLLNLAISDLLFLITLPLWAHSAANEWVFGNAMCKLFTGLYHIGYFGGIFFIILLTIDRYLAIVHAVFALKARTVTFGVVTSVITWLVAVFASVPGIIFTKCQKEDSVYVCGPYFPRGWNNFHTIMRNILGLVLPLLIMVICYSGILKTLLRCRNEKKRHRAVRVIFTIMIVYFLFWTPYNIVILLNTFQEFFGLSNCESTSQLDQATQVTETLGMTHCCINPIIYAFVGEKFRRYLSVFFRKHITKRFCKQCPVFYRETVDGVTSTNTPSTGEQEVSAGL
Description: as §1, §2, §3, §4

Sequence of rat CCR2 (O55193 whole entry): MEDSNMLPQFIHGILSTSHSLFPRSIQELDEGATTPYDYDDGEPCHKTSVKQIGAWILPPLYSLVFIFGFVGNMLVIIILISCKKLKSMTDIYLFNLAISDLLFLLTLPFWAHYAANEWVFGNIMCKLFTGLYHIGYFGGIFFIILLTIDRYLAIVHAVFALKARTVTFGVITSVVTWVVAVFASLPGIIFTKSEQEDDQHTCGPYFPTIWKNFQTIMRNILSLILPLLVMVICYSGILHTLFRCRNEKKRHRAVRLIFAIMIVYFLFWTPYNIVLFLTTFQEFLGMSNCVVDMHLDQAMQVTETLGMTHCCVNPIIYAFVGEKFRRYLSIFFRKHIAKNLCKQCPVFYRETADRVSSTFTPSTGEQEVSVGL

SMILES	Kb (rat CCR2)	IC50 (human CCR2B)	Kb (human CCR2B; read-out: hCCR2B Kb)	IC50 (human CCR2B; calcium flux, human MCP-1 2 nM)	Kb (human CCR2B)
CO[C@@H]1COCC[C@@H]1N[C@@H]1C[C@H]2CCC[C@@]2(C(=O)N2C[C@@H]3C[C@H]2CN3c2ncccc2C(F)(F)F)C1 [Example 33, 1,5-anhydro-2,3-dideoxy-4-O-methyl-3-{[(2R,3aR,6aR)-3a-({(1S,4S)-5-[3-(trifluoromethyl)pyridin-2-yl]-2,5-diazabicyclo[2.2.1]hept-2-yl}carbonyl)octahydropentalen-2-yl]amino}-D-erythro-pentitol]	> 1330 nM	25000 nM	> 6140 nM	–	–
CO[C@@H]1COCC[C@@H]1N[C@@H]1C[C@H]2CCC[C@@]2(C(=O)N2C[C@@H]3C[C@H]2CN3c2ccc(C(F)(F)F)cn2)C1 [Example 34, 1,5-anhydro-2,3-dideoxy-4-O-methyl-3-{[(2R,3aR,6aR)-3a-({(1S,4S)-5-[5-(trifluoromethyl)pyridin-2-yl]-2,5-diazabicyclo[2.2.1]hept-2-yl}carbonyl)octahydropentalen-2-yl]amino}-D-erythro-pentitol]	342 nM	2780 nM	682 nM	–	–
CO[C@@H]1COCC[C@@H]1N[C@@H]1C[C@H]2CCC[C@@]2(C(=O)N2C[C@@H]3C[C@H]2CN3c2ccnc(Cl)c2)C1 [Example 35, 1,5-anhydro-3-{[(2R,3aR,6aR)-3a-{[(1S,4S)-5-(2-chloropyridin-4-yl)-2,5-diazabicyclo[2.2.1]hept-2-yl]carbonyl}octahydropentalen-2-yl]amino}-2,3-dideoxy-4-O-methyl-D-erythro-pentitol]	240 nM	–	682 nM	2780 nM	–
CO[C@@H]1COCC[C@@H]1N[C@@H]1C[C@H]2CCC[C@@]2(C(=O)N2C[C@@H]3C[C@H]2CN3c2ccc(C#N)cc2C(F)(F)F)C1 [Example 37, 1,5-anhydro-3-{[(2R,3aR,6aR)-3a-({(1S,4S)-5-[4-cyano-2-(trifluoromethyl)phenyl]-2,5-diazabicyclo[2.2.1]hept-2-yl}carbonyl)octahydropentalen-2-yl]amino}-2,3-dideoxy-4-O-methyl-D-erythro-pentitol]	248 nM	–	393 nM	1600 nM	–
CO[C@@H]1COCC[C@H]1N[C@@H]1C[C@H]2CCC[C@@]2(C(=O)N2[C@@H]3CC[C@H]2CN(c2cc(C(F)(F)F)ccn2)C3)C1 [Example 41, 1,5-anhydro-2,3-dideoxy-4-O-methyl-3-{[(2R,3aR,6aR)-3a-({(1R,5S)-3-[4-(trifluoromethyl)pyridin-2-yl]-3,8-diazabicyclo[3.2.1]oct-8-yl}carbonyl)octahydropentalen-2-yl]amino}-D-threo-pentitol]	> 4000 nM	–	> 6140 nM	25000 nM	–
CO[C@@H]1COCC[C@@H]1N[C@@H]1C[C@H]2CCC[C@@]2(C(=O)N2C[C@@H]3C[C@H]2CN3c2cc(C#N)cc(C(F)(F)F)c2)C1 [Example 42, 1,5-anhydro-3-{[(2R,3aR,6aR)-3a-({(1S,4S)-5-[3-cyano-5-(trifluoromethyl)phenyl]-2,5-diazabicyclo[2.2.1]hept-2-yl}carbonyl)octahydropentalen-2-yl]amino}-2,3-dideoxy-4-O-methyl-D-erythro-pentitol]	26 nM	812 nM	–	–	199 nM
CO[C@@H]1COCC[C@@H]1N[C@@H]1C[C@H]2CCC[C@@]2(C(=O)N2C[C@@H]3C[C@H]2CN3c2cc(C(F)(F)F)cc(C(F)(F)F)c2)C1 [Example 43, 1,5-anhydro-3-{[(2R,3aR,6aR)-3a-({(1S,4S)-5-[3,5-bis(trifluoromethyl)phenyl]-2,5-diazabicyclo[2.2.1]hept-2-yl}carbonyl)octahydropentalen-2-yl]amino}-2,3-dideoxy-4-O-methyl-D-erythro-pentitol]	53 nM	–	373 nM	–	–
CO[C@@H]1COCC[C@@H]1N[C@@H]1C[C@H]2CCC[C@@]2(C(=O)N2C[C@@H]3C[C@H]2CN3c2cccc(Cl)c2C#N)C1 [Example 44, 1,5-anhydro-3-{[(2R,3aR,6aR)-3a-{[(1S,4S)-5-(3-chloro-2-cyanophenyl)-2,5-diazabicyclo[2.2.1]hept-2-yl]carbonyl}octahydropentalen-2-yl]amino}-2,3-dideoxy-4-O-methyl-D-erythro-pentitol]	486 nM	–	394 nM	1600 nM	–
CO[C@@H]1COCC[C@@H]1N[C@@H]1C[C@H]2CCC[C@@]2(C(=O)N2C[C@@H]3C[C@H]2CN3c2cccc(C(F)(F)F)c2C#N)C1 [Example 45, 1,5-anhydro-3-{[(2R,3aR,6aR)-3a-({(1S,4S)-5-[2-cyano-3-(trifluoromethyl)phenyl]-2,5-diazabicyclo[2.2.1]hept-2-yl}carbonyl)octahydropentalen-2-yl]amino}-2,3-dideoxy-4-O-methyl-D-erythro-pentitol]	532 nM	–	542 nM	2200 nM	–
CO[C@@H]1COCC[C@@H]1N[C@@H]1C[C@H]2CCC[C@@]2(C(=O)N2C[C@@H]3C[C@H]2CN3c2ccc(Cl)c(C(F)(F)F)c2)C1 [Example 46, 1,5-anhydro-3-{[(2R,3aR,6aR)-3a-({(1S,4S)-5-[4-chloro-3-(trifluoromethyl)phenyl]-2,5-diazabicyclo[2.2.1]hept-2-yl}carbonyl)octahydropentalen-2-yl]amino}-2,3-dideoxy-4-O-methyl-D-erythro-pentitol]	3 nM	–	4 nM	–	–
CO[C@@H]1COCC[C@@H]1N(C)[C@@H]1C[C@H]2CCC[C@@]2(C(=O)N2C[C@@H]3C[C@H]2CN3c2cccc(C(F)(F)F)c2C#N)C1 [Example 54, 1,5-anhydro-3-{[(2R,3aR,6aR)-3a-({(1S,4S)-5-[2-cyano-3-(trifluoromethyl)phenyl]-2,5-diazabicyclo[2.2.1]hept-2-yl}carbonyl)octahydropentalen-2-yl](methyl)amino}-2,3-dideoxy-4-O-methyl-D-erythro-pentitol]	2310 nM	2780 nM	682 nM	–	–
CO[C@@H]1COCC[C@@H]1N(C)[C@@H]1C[C@H]2CCC[C@@]2(C(=O)N2C[C@@H]3C[C@H]2CN3c2cc(C(F)(F)F)cc(C(F)(F)F)c2)C1 [Example 55, 1,5-anhydro-3-{[(2R,3aR,6aR)-3a-({(1S,4S)-5-[3,5-bis(trifluoromethyl)phenyl]-2,5-diazabicyclo[2.2.1]hept-2-yl}carbonyl)octahydropentalen-2-yl](methyl)amino}-2,3-dideoxy-4-O-methyl-D-erythro-pentitol]	175 nM	–	346 nM	1410 nM	–
CO[C@@H]1COCC[C@@H]1N(C)[C@@H]1C[C@H]2CCC[C@@]2(C(=O)N2C[C@@H]3C[C@H]2CN3c2cc(C#N)cc(C(F)(F)F)c2)C1 [Example 57, 1,5-anhydro-3-{[(2R,3aR,6aR)-3a-({(1S,4S)-5-[3-cyano-5-(trifluoromethyl)phenyl]-2,5-diazabicyclo[2.2.1]hept-2-yl}carbonyl)octahydropentalen-2-yl](methyl)amino}-2,3-dideoxy-4-O-methyl-D-erythro-pentitol]	55 nM	–	128 nM	521 nM	–
CO[C@@H]1COCC[C@@H]1N(C)[C@@H]1C[C@H]2CCC[C@@]2(C(=O)N2C[C@@H]3C[C@H]2CN3c2cccc(Cl)c2C#N)C1 [Example 58, 1,5-anhydro-3-{[(2R,3aR,6aR)-3a-{[(1S,4S)-5-(3-chloro-2-cyanophenyl)-2,5-diazabicyclo[2.2.1]hept-2-yl]carbonyl}octahydropentalen-2-yl](methyl)amino}-2,3-dideoxy-4-O-methyl-D-erythro-pentitol]	515 nM	–	684 nM	2780 nM	–
O=C(N1C[C@@H]2C[C@H]1CN2c1cc(C(F)(F)F)ccn1)[C@@]12CCC[C@@H]1C[C@@H](N1CCOCC1)C2 [Example 59, [(2R,3aR,6aR)-2-(morpholin-4-yl)hexahydropentalen-3a(1H)-yl]{(1S,4S)-5-[4-(trifluoromethyl)pyridin-2-yl]-2,5-diazabicyclo[2.2.1]hept-2-yl}methanone]	533 nM	830 nM	204 nM	–	–
C[C@H]1COCC[C@H]1N[C@@H]1C[C@H]2CCC[C@@]2(C(=O)N2C[C@@H]3C[C@H]2CN3c2cc(C(F)(F)F)ccn2)C1 [Example 62, [(2R,3aR,6aR)-2-{[(3R,4R)-3-methyltetrahydro-2H-pyran-4-yl]amino}hexahydropentalen-3a(1H)-yl]{(1S,4S)-5-[4-(trifluoromethyl)pyridin-2-yl]-2,5-diazabicyclo[2.2.1]hept-2-yl}methanone]	55 nM	–	109 nM	445 nM	–
